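All cell lines were grown in 96-well plates and treated with compound for 48 hours. GI50 marks 50% less growth. TGI marks complete inhibition of growth.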
Experiments:
Test in all cases: NCI anticancer screen, dose series, 48 h
COLO 205 colon = test system: COLO 205 colon
MDA-MB-231 breast = test system: MDA-MB-231 breast
RPMI-8226 leukemia = test system: RPMI-8226 leukemia
TK-10 renal = test system: TK-10 renal
ACHN renal = test system: ACHN renal
HCC-2998 colon = test system: HCC-2998 colon
NCI-H23 lung = test system: NCI-H23 lung
SF-268 CNS = test system: SF-268 CNS
U251 CNS = test system: U251 CNS
UO-31 renal = test system: UO-31 renal

Structure (SMILES)	GI50 (COLO 205 colon)	TGI (COLO 205 colon)	GI50 (MDA-MB-231 breast) [µM]	TGI (MDA-MB-231 breast) [µM]	GI50 (RPMI-8226 leukemia)	TGI (RPMI-8226 leukemia)	GI50 (TK-10 renal)	TGI (TK-10 renal)	TGI (ACHN renal)	TGI (HCC-2998 colon)	TGI (NCI-H23 lung)	TGI (SF-268 CNS)	TGI (U251 CNS)	TGI (UO-31 renal)	GI50 (ACHN renal) [µg/mL]	GI50 (HCC-2998 colon) [µg/mL]	GI50 (NCI-H23 lung) [µg/mL]	GI50 (SF-268 CNS) [µg/mL]	GI50 (U251 CNS) [µg/mL]	GI50 (UO-31 renal) [µg/mL]
CCOC(=O)C1=CSC2=NC3=C(CCC/C3=C\c3cc(OC)c(OC)c(OC)c3)C(c3cc(OC)c(OC)c(OC)c3)N12 (stereo not given)	3.05 µM	> 100 µM	3.2	> 100	0.333 µM	1.67 µM	4.33 µM	> 100 µM	–	–	–	–	–	–	–	–	–	–	–	–
CC(=O)c1c(O)c2c([nH]c1=O)CCCC2	–	> 100 µM	–	–	–	–	–	> 100 µM	> 100 µM	53.4 µM	> 100 µM	> 100 µM	60.9 µM	31.2 µM	–	–	–	–	–	–
O=C(CCC(=O)C1Cc2ccccc2C1=O)Nc1cccc(C(F)(F)F)c1 (stereo not given)	–	> 100 µM	–	–	–	–	–	> 100 µM	> 100 µM	> 100 µM	> 100 µM	> 100 µM	> 100 µM	> 100 µM	–	–	–	–	–	–
O=c1c2cccc3cccc(c4n1CCCN=4)c32	–	> 100 µM	–	–	–	> 100 µM	–	> 100 µM	> 100 µM	–	> 100 µM	> 100 µM	> 100 µM	> 100 µM	–	–	–	–	–	–
O=C1c2ccoc2C(=O)c2oc(=O)ccc21	–	> 55.4 µM	–	–	–	22.2 µM	–	> 59.1 µM	8.43 µM	> 59 µM	4.01 µM	27.1 µM	20.8 µM	14.9 µM	–	–	–	–	–	–
CC(C)(C)c1cc(C(OCCl)(C(F)(F)F)C(F)(F)F)c2c(c1)C(C(F)(F)F)(C(F)(F)F)OC21c2ccccc2C(=O)c2ccccc21	–	> 100 µM	–	–	–	> 100 µM	–	> 100 µM	> 100 µM	> 100 µM	> 100 µM	–	> 100 µM	> 100 µM	–	–	–	–	–	–
C/C(CC(=O)Nc1cccc(Cl)c1C)=N\N=C(N)N	–	> 100 µM	–	–	–	> 100 µM	–	> 100 µM	> 100 µM	> 100 µM	> 100 µM	> 100 µM	> 100 µM	> 100 µM	–	–	–	–	–	–
O=C(Nc1ccc(Cl)c(Cl)c1)C1C(=O)N(c2ccc(Cl)c(Cl)c2)C(=O)/C1=N\O (stereo not given)	–	41.9 µM	–	–	–	> 100 µM	–	> 100 µM	> 100 µM	> 100 µM	> 100 µM	> 100 µM	> 100 µM	> 100 µM	–	–	–	–	–	–
COC(=O)c1cc2ccccc2c2nc3ccccc3c(Cl)c12	–	> 100 µM	–	–	–	> 100 µM	–	> 100 µM	> 100 µM	> 100 µM	> 100 µM	> 100 µM	> 100 µM	–	–	–	–	–	–	–
NNC(=O)N/N=C1\CNC(=O)C(=O)C1c1nc2ccccc2s1 (stereo not given)	–	> 100 µM	–	–	–	> 100 µM	–	> 100 µM	> 100 µM	> 100 µM	> 100 µM	> 100 µM	> 100 µM	> 100 µM	–	–	–	–	–	–
Nc1c(C(=O)Nc2ccccc2O)[n+]([O-])c2ccccc2[n+]1[O-]	–	> 100 µM	–	–	–	> 100 µM	–	–	> 100 µM	–	84.7 µM	–	> 100 µM	> 100 µM	–	–	–	–	–	–
COc1ccc2c3c(c(C(=O)O)oc13)C(CCC(=O)O)CC2 (stereo not given)	–	> 100 µM	–	–	–	–	–	> 100 µM	> 100 µM	> 100 µM	> 100 µM	–	> 100 µM	–	–	–	–	–	–	–
Nc1c(-c2nc3ccccc3s2)[n+]([O-])c2ccccc2[n+]1[O-]	–	> 100 µM	–	–	–	89.5 µM	–	> 100 µM	78 µM	> 100 µM	51.4 µM	82.2 µM	> 100 µM	77.7 µM	–	–	–	–	–	–
NC(=O)C(=O)Cc1nc2ccccc2s1	–	> 100 µM	–	–	–	> 100 µM	–	> 100 µM	> 100 µM	> 100 µM	> 100 µM	> 100 µM	> 100 µM	> 100 µM	–	–	–	–	–	–
CN(C)CCNC(=O)c1cccc2cc3ccc4ccccc4c3nc12	–	0.25 µM	–	–	–	0.527 µM	–	0.904 µM	0.0561 µM	0.252 µM	0.39 µM	1.2 µM	0.663 µM	0.218 µM	–	–	–	–	–	–
c1ccc2c(c1)[O][Sn][O]2	> 150 µg/mL	> 150 µg/mL	–	–	7.54 µg/mL	> 150 µg/mL	101 µg/mL	> 150 µg/mL	> 150 µg/mL	> 150 µg/mL	113 µg/mL	> 150 µg/mL	> 150 µg/mL	> 150 µg/mL	24.1	81.5	21.3	25.1	> 150	12.6
Nc1ncnc2sc(Nc3ccccc3)nc12	–	> 100 µM	–	–	–	> 100 µM	–	> 100 µM	> 100 µM	> 100 µM	> 100 µM	> 100 µM	> 100 µM	> 100 µM	–	–	–	–	–	–

— PubChem BioAssay (NCI)
